Here are results for four molecules from paper PMC12535377, “Synaptic and intrinsic plasticity mediated by CCK-type signaling coordinates behavioral changes during motivational state shifts” (Cell reports, 2025).

Usually EC50 stands for the concentration giving half of the maximal effect.

One assay deals with T1, apCCKR2 (Aplysia californica, UniProt A0ABM0ZX06).
T1 sequence (A0ABM0ZX06 1-377): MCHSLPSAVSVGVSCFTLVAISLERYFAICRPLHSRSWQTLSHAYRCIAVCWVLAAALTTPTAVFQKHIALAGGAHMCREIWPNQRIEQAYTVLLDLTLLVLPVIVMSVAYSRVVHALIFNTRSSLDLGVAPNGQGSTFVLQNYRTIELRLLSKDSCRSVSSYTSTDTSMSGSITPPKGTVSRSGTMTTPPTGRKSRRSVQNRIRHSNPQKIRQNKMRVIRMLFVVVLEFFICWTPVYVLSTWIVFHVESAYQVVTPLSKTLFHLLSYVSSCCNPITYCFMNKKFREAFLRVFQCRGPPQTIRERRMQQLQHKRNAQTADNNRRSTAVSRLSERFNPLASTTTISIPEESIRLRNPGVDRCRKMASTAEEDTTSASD
The assay can be described thus: IP1 accumulation assay, apCCKR2 in CHO-K1 cells. The class given is cell-based. Conditions: CHO-K1 cells transfected with receptor and promiscuous Gαq. Here is the method:
We tested receptor activation using the IP1 (inositol monophosphate) accumulation assay that measures IP1 generated in the Gαq pathway (see STAR Methods).
CHO-K1 cells were cultured in F-12K medium (Gibco, 21127–022) with 10% fetal bovine serum at 37°C in 5% CO2. Before transfection, cells were grown in 35 mm diameter tissue culture-treated dishes to 85% confluence. For transfection, 1.5 μg apCCKR plasmids or control plasmids (in pcDNA3.1(+) vector) and 1.5 μg promiscuous Gαq-family protein (in pcDNA3.1(+) vector) were mixed with 200 μL Opti-MEM (Gibco, 11058021), and 8 μL Turbofect (Thermo Fisher Scientific, R0531). This promiscuous Gαq protein contains substitutions to increase promiscuity,[148] and could bind to most GPCRs, ensuring an IP1 response when a potential ligand binds to its specific GPCR, irrespective of the GPCR’s normal association with any specific Gα proteins. The DNA mixture was incubated at room temperature for 15 min and then added dropwise to the cells in F-12K medium with 10% FBS (no antibiotics), followed by incubation at 37°C in 5% CO2 overnight. The next day, cells were detached using trypsin and reseeded in white 96-well half-area tissue culture-treated plates (Corning, 3688) at a density of 20,000 cells per well in F-12K and 10% FBS, and incubated at 37°C in 5% CO2 overnight. Activation of putative apCCK or related receptor was detected by monitoring IP1 accumulation using IPOne Detection Kit (Cisbio, 62IPAPEB), as previously described.[64],[65],[141],[149],[150]
Dose-response curves and bar graphs for experimental data were plotted using Prism software (GraphPad version 8). Data are presented as mean ± SEM of at least three independent experiments, except that LogEC50 values reported in the main text are the mean ± standard deviation (SD) from at least three independent experiments. Statistical tests were performed using Prism software. They included Student’s t-test, one-way or two-way ANOVA, as appropriate. […] Electrophysiological recordings were digitized online using AxoScope software version 10.7 (Molecular Devices, LLC, Sunnyvale, CA) and were plotted by CorelDraw version 2018 (Corel Corp., Ottawa, Canada).

In assay [1] the test system is CBI-2-elicited feeding motor programs. The assay can be described thus: CBI-2-elicited feeding motor programs in isolated cerebral and buccal ganglia. As to conditions: for Protraction duration of CBI-2 programs: 10^-6 M and 10^-5 M tested; for B8 activity (frequency) during retraction: CBI-2 programs, 10^-6 M and 10^-5 M; for Feeding program effect, summary grade: Table S1 summary in words. Details: species or system Aplysia californica. Here is the method:
To explore the neural basis of the behavioral effects of apCCKs, we examined their modulation of feeding-motor programs in isolated ganglia. All eight forms of apCCKs were tested on programs induced by CBI-2, a command-like interneuron that is active during food-elicited feeding behavior[56] and provides potent excitatory inputs to buccal central pattern generator (CPG) interneurons,[54],[77] orchestrating ingestive motor programs (Figure S23A). Stable single-cycle motor programs were evoked by stimulating CBI-2 at 8–10 Hz throughout the protraction phase with a 90-s intertrial interval. Two concentrations, 10^−6 M and 10^−5 M, of apCCKs were tested.
Intracellular and extracellular recordings were made as described previously.[57]–[59],[61],[151] To prevent movements of ganglia caused by myoactive apCCK (especially [sY8]-apCCK1 and [sY6, sY8]-apCCK1) during bath application, we treated the ganglia with 0.8% protease IX for 1–2 min prior to desheathing. Subsequently, ganglia were desheathed, transferred to a recording chamber containing ~1.5 mL of ASW (460 mM NaCl, 10 mM KCl, 11mM CaCl2, 55 mM MgCl2, and 10 mM HEPES, pH 7.6), continuously perfused at 0.3 mL/min, and maintained at 14°C–17°C. The experiments examining the effects of apCCKs on excitability of B20/B34/B61/62/B65/B64 neurons were performed in a high divalent saline (368 mM NaCl, 8 mM KCl, 13.8 mM CaCl2, 115 mM MgCl2, and 10 mM HEPES, pH 7.6), which increases the spiking threshold of neurons and therefore curtails polysynaptic influences. Intracellular recordings were obtained using 5–10 MΩ sharp microelectrodes filled with an electrolyte (0.6 M K2SO4 plus 60 mM KCl). Extracellular recordings were acquired from polyethylene suction electrodes. Grass S88 and WPI Pulsemaster A300 stimulators were used to provide timing signals for intracellular and extracellular stimulation. To determine the effects of various forms of apCCKs on Aplysia feeding programs, we performed experiments with the cerebral and buccal ganglia. Freshly made apCCK solution in ASW was perfused into the recording chamber. Feeding-motor programs were elicited by stimulation of command-like neuron CBI-2 at 8–10 Hz or stimulation of the EN at 2 Hz, 3 ms, 15 V, and were monitored by bursting activity of the I2 nerve of the buccal ganglion.[58],[59],[61] Typically, we recorded from motor neuron B8, and one interneuron, e.g., B40 or B20. To determine effects of apCCKs on synaptic strength, we stimulated presynaptic neuron, CBI-2, B34 (plus 1 nA current) or B65 at 10 Hz for 2 s for several trials and waited 1 min between each trial. The stimulation duration for each trial was set at 2 s because this allows the expression of synaptic facilitation without evoking too many spikes. Typically, the amplitude of the last EPSP at each concentration of peptides was quantified unless otherwise stated.

The mark [2] stands for this setting: log[EC50] with negative sign, mean ± SD, at least three independent experiments, SD, read-out: apCCKR2: log[EC50] (converted).
Where [3] appears, read: average of at least three independent experiments, read-out: apCCKR2: EC50.

Like-named read-outs stand apart in the source and are kept apart here. Non-standard residues stand in square brackets, D forms with d. Residues, ends and D or L forms follow the SMILES beside them. sY = N[C@@H](Cc1ccc(OS(=O)(=O)O)cc1)C(=O)O

For `CC[C@H](C)[C@H](NC(=O)CNC(=O)[C@H](Cc1ccc(OS(=O)(=O)O)cc1)NC(=O)[C@H](CC(=O)O)NC(=O)CNC(=O)[C@H](Cc1ccc(OS(=O)(=O)O)cc1)NC(=O)[C@@H](N)CO)C(=O)NCC(=O)NCC(=O)NCC(=O)N[C@@H](CCCNC(=N)N)C(=O)N[C@@H](Cc1ccccc1)C(N)=O` [[sY2, sY5]-apCCK2] (H-S[sY]GD[sY]GIGGGRF-NH2), at apCCKR2 (setting [2]), the concentration giving a half-maximal response (EC50) was 355 nM. In addition, in assay [1], the “Protraction duration of CBI-2 programs” value is reported as “shortened”; the “B8 activity (frequency) during retraction” value is “reduced”; the “Feeding program effect, summary grade” value is reported as “Weak”.
Regarding `CC[C@H](C)[C@H](NC(=O)CNC(=O)[C@H](Cc1ccc(O)cc1)NC(=O)[C@H](CC(=O)O)NC(=O)CNC(=O)[C@H](Cc1ccc(OS(=O)(=O)O)cc1)NC(=O)[C@@H](N)CO)C(=O)NCC(=O)NCC(=O)NCC(=O)N[C@@H](CCCNC(=N)N)C(=O)N[C@@H](Cc1ccccc1)C(N)=O` [[sY2]-apCCK2] (H-S[sY]GDYGIGGGRF-NH2), the EC50 is 1400 nM on apCCKR2 (setting [3]) and 1100 nM at apCCKR2 (setting [2]). Further, the “Feeding program effect, summary grade” value in assay [1] is listed as “No effect”.
Regarding H-SYGDYGIGGGRF-NH2 [apCCK2], the EC50 on apCCKR2 (setting [3]) is over 10000 nM. The “Feeding program effect, summary grade” value in assay [1] was “No effect”.
For `CC[C@H](C)[C@H](NC(=O)CNC(=O)[C@H](Cc1ccc(OS(=O)(=O)O)cc1)NC(=O)[C@H](CC(=O)O)NC(=O)CNC(=O)[C@H](Cc1ccc(O)cc1)NC(=O)[C@@H](N)CO)C(=O)NCC(=O)NCC(=O)NCC(=O)N[C@@H](CCCNC(=N)N)C(=O)N[C@@H](Cc1ccccc1)C(N)=O` [[sY5]-apCCK2] (H-SYGD[sY]GIGGGRF-NH2), at apCCKR2 (setting [3]), the EC50 stood at 49 nM. The EC50 at apCCKR2 (setting [2]) was 38.9 nM. Besides, in assay [1], the “Protraction duration of CBI-2 programs” value is on record as “shortened”; the “B8 activity (frequency) during retraction” value was “reduced”; the “Feeding program effect, summary grade” value was “Moderate”.
